Experimental data from PubChem BioAssay AID256 (DTP/NCI, 2004).
“And” between values parts separate entries of the source, which are not always exact repeats. Equal values may be shown once. Inconclusive results and toxic doses are left out. Rule for the calls: active = survival T/C of 150% or more; inactive = T/C below 125% in these data.

Tested on: CD2F1 mice, L1210 leukemia ip, survival T/C
Assay: NCI In Vivo Anticancer Drug Screen. Data for tumor model L1210 Leukemia (intraperitoneal) in CD2F1 (CDF1) mice
Conditions: higher = longer survival
Outline: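 Vehicle-treated tumor-bearing mice served as controls (C) for compound-treated mice (T). Reported figure is T divided by C.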

[1] = endpoint: mean survival time, dose: 1.5 mg/kg/injection, schedule: Q01DX009 (ip), vehicle: saline
[2] = endpoint: mean survival time, dose: 100.0 mg/kg/injection, schedule: Q04DX003 (ip), vehicle: saline with Tween-80
[3] = endpoint: mean survival time, dose: 200.0 mg/kg/injection, schedule: Q04DX003 (ip), vehicle: saline with Tween-80
[4] = endpoint: mean survival time, dose: 400.0 mg/kg/injection, schedule: Q04DX003 (ip), vehicle: saline with Tween-80
[5] = endpoint: mean survival time, dose: 12.5 mg/kg/injection, schedule: Q01DX009 (ip), vehicle: saline with Tween-80
[6] = endpoint: mean survival time, dose: 25.0 mg/kg/injection, schedule: Q01DX009 (ip), vehicle: saline with Tween-80
[7] = endpoint: mean survival time, dose: 100.0 mg/kg/injection, schedule: Q01DX001 (ip), vehicle: saline with Tween-80
[8] = endpoint: mean survival time, dose: 200.0 mg/kg/injection, schedule: Q01DX001 (ip), vehicle: saline with Tween-80
[9] = endpoint: mean survival time, dose: 400.0 mg/kg/injection, schedule: Q01DX001 (ip), vehicle: saline with Tween-80

Measured: T/C

CC(C)[NH-].CC(C)[NH-].O.O.[Cl][Pt+2][Cl]
inactive: [1] 118 % of control | endpoint: mean survival time, dose: 1.57 mg/kg/injection, schedule: Q01DX009 (ip), vehicle: saline 115 % of control | endpoint: mean survival time, dose: 100.0 mg/kg/injection, schedule: Q01DX001 (ip), vehicle: saline 112 % of control | endpoint: mean survival time, dose: 200.0 mg/kg/injection, schedule: Q01DX001 (ip), vehicle: saline 90 % of control

Nc1ccccc1CCc1ccccc1N
inactive: [2] 100 % of control | [3] 102 % of control | [4] 93 % of control

O=[N+]([O-])c1ccc(-n2[nH]nnc2=S)cc1
inactive: [5] 95 % of control | [6] 93 % of control | endpoint: mean survival time, dose: 50.0 mg/kg/injection, schedule: Q01DX009 (ip), vehicle: saline with Tween-80 102 % of control | endpoint: mean survival time, dose: 100.0 mg/kg/injection, schedule: Q01DX009 (ip), vehicle: acetone 95 % of control | endpoint: mean survival time, dose: 100.0 mg/kg/injection, schedule: Q01DX009 (ip), vehicle: saline with Tween-80 96 % of control | endpoint: mean survival time, dose: 200.0 mg/kg/injection, schedule: Q01DX009 (ip), vehicle: acetone 94 % of control | endpoint: mean survival time, dose: 200.0 mg/kg/injection, schedule: Q01DX009 (ip), vehicle: saline with Tween-80 96 % of control | endpoint: mean survival time, dose: 400.0 mg/kg/injection, schedule: Q01DX009 (ip), vehicle: saline with Tween-80 93 % of control

Cc1cccc(C)c1N
inactive: [7] 96 % of control | [8] 94 % of control | [9] 91 % of control

O=C1CCCCCCC(=O)CCCCCC1
inactive: endpoint: mean survival time, dose: 12.5 mg/kg/injection, schedule: Q04DX002 (ip), vehicle: saline with Tween-80 105 % of control | endpoint: mean survival time, dose: 25.0 mg/kg/injection, schedule: Q04DX002 (ip), vehicle: saline with Tween-80 101 % of control | endpoint: mean survival time, dose: 50.0 mg/kg/injection, schedule: Q04DX002 (ip), vehicle: saline with Tween-80 105 % of control

OC1OCC(COc2ccc(Cl)cc2)OC1O (centres undefined)
inactive: endpoint: median survival time, dose: 25.0 mg/kg/injection, schedule: Q01DX005 (ip), vehicle: saline with Tween-80 102 % of control | endpoint: median survival time, dose: 50.0 mg/kg/injection, schedule: Q01DX005 (ip), vehicle: saline with Tween-80 102 % of control | endpoint: median survival time, dose: 100.0 mg/kg/injection, schedule: Q01DX005 (ip), vehicle: saline with Tween-80 115 % of control | endpoint: median survival time, dose: 144.0 mg/kg/injection, schedule: Q01DX005 (ip), vehicle: saline with Tween-80 102 % of control | endpoint: median survival time, dose: 200.0 mg/kg/injection, schedule: Q01DX005 (ip), vehicle: saline with Tween-80 117 % of control | endpoint: median survival time, dose: 240.0 mg/kg/injection, schedule: Q01DX005 (ip), vehicle: saline with Tween-80 101 % of control | endpoint: median survival time, dose: 400.0 mg/kg/injection, schedule: Q01DX005 (ip), vehicle: saline with Tween-80 96 % of control

O=C(O)CN(CC(=O)O)C1CCCCC1N(CC(=O)O)CC(=O)O.[Cl][Pt+2][Cl] (centres undefined)
inactive: endpoint: median survival time, dose: 10.0 mg/kg/injection, schedule: Q04DX003 (ip), vehicle: saline 96 % of control | endpoint: median survival time, dose: 20.0 mg/kg/injection, schedule: Q04DX003 (ip), vehicle: saline 106 % of control | endpoint: median survival time, dose: 40.0 mg/kg/injection, schedule: Q04DX003 (ip), vehicle: saline 103 % of control and 104 % of control | endpoint: median survival time, dose: 80.0 mg/kg/injection, schedule: Q04DX003 (ip), vehicle: saline 106 % of control and 109 % of control

CSc1ccnc2ccccc12
inactive: endpoint: mean survival time, dose: 12.5 mg/kg/injection, schedule: Q01DX009 (ip), vehicle: other 106 % of control | endpoint: mean survival time, dose: 25.0 mg/kg/injection, schedule: Q01DX009 (ip), vehicle: other 100 % of control | endpoint: mean survival time, dose: 50.0 mg/kg/injection, schedule: Q01DX009 (ip), vehicle: other 103 % of control

NC(=S)NNC(=O)c1ccccc1
inactive: endpoint: mean survival time, dose: 100.0 mg/kg/injection, schedule: Q04DX003 (ip), vehicle: Klucel (hydroxypropylcellulose) (HPC) 91 % of control | endpoint: mean survival time, dose: 200.0 mg/kg/injection, schedule: Q04DX003 (ip), vehicle: Klucel (hydroxypropylcellulose) (HPC) 91 % of control

CC(C)CCCC(C)C1CCC2C3C(=O)C4=CC(=O)CCC4(C)C3CCC12C (centres undefined)
inactive: [7] 94 % of control | [8] 96 % of control | [9] 90 % of control

CCOC(=O)c1c(C)nc(C)c(C(=O)OCC)c1-c1cccc([N+](=O)[O-])c1
inactive: endpoint: mean survival time, dose: 50.0 mg/kg/injection, schedule: Q04DX003 (ip), vehicle: saline with Tween-80 97 % of control | [2] 105 % of control | [3] 103 % of control

CCC12CCC(=O)C=C1CCCC2=O (centres undefined)
inactive: endpoint: mean survival time, dose: 100.0 mg/kg/injection, schedule: Q04DX003 (ip), vehicle: saline sonified 95 % of control

Nc1nc(N)c2cc(CCc3ccc(C(=O)NC(CCC(=O)O)C(=O)O)cc3)ccc2n1 (centres undefined)
inactive: endpoint: mean survival time, dose: 0.31 mg/kg/injection, schedule: Q01DX009 (ip), vehicle: Klucel (hydroxypropylcellulose) (HPC) 119 % of control

Cc1ccc(OCC(=O)C2CSc3ccc(Cl)cc32)cc1 (centres undefined)
inactive: [2] 97 % of control | [3] 94 % of control | [4] 111 % of control

OCCOCCN1CCN(CC/C=C2\c3ccccc3Sc3ccc(C(F)(F)F)cc32)CC1
inactive: endpoint: mean survival time, dose: 0.75 mg/kg/injection, schedule: Q01DX009 (ip), vehicle: saline 87 % of control | [1] 94 % of control | endpoint: mean survival time, dose: 3.0 mg/kg/injection, schedule: Q01DX009 (ip), vehicle: saline 100 % of control | endpoint: mean survival time, dose: 6.25 mg/kg/injection, schedule: Q04DX003 (ip), vehicle: saline 103 % of control | endpoint: mean survival time, dose: 8.0 mg/kg/injection, schedule: Q04DX003 (ip), vehicle: saline with Tween-80 115 % of control | endpoint: mean survival time, dose: 12.0 mg/kg/injection, schedule: Q04DX003 (ip), vehicle: saline with Tween-80 116 % of control | endpoint: mean survival time, dose: 25.0 mg/kg/injection, schedule: Q04DX003 (ip), vehicle: saline 97 % of control | endpoint: mean survival time, dose: 50.0 mg/kg/injection, schedule: Q04DX003 (ip), vehicle: saline 111 % of control | endpoint: mean survival time, dose: 100.0 mg/kg/injection, schedule: Q04DX003 (ip), vehicle: saline 93 % of control

COC1=C(Br)[C@H](O)[C@](O)(CC#N)C=C1Br
inactive: endpoint: mean survival time, dose: 6.25 mg/kg/injection, schedule: Q01DX009 (ip), vehicle: saline 113 % of control | endpoint: mean survival time, dose: 12.5 mg/kg/injection, schedule: Q01DX009 (ip), vehicle: saline 111 % of control | endpoint: mean survival time, dose: 17.5 mg/kg/injection, schedule: Q01DX009 (ip), vehicle: Klucel (hydroxypropylcellulose) (HPC) 98 % of control | endpoint: mean survival time, dose: 25.0 mg/kg/injection, schedule: Q01DX009 (ip), vehicle: saline 117 % of control | endpoint: mean survival time, dose: 35.0 mg/kg/injection, schedule: Q01DX009 (ip), vehicle: Klucel (hydroxypropylcellulose) (HPC) 100 % of control | endpoint: mean survival time, dose: 70.0 mg/kg/injection, schedule: Q01DX009 (ip), vehicle: Klucel (hydroxypropylcellulose) (HPC) 102 % of control

O=[N+]([O-])c1c[nH]n2c([N+](=O)[O-])cnc12
inactive: endpoint: mean survival time, dose: 12.5 mg/kg/injection, schedule: Q01DX009 (ip), vehicle: water 96 % of control | endpoint: mean survival time, dose: 25.0 mg/kg/injection, schedule: Q01DX009 (ip), vehicle: water 97 % of control

C[CH2][Sn]([Cl])([CH2]C)[c]1cc[c]([Sn]([Cl])([CH2]C)[CH2]C)cc1
inactive: endpoint: median survival time, dose: 0.06 mg/kg/injection, schedule: Q01DX005 (ip), vehicle: Klucel (hydroxypropylcellulose) (HPC) 103 % of control | endpoint: median survival time, dose: 0.12 mg/kg/injection, schedule: Q01DX005 (ip), vehicle: Klucel (hydroxypropylcellulose) (HPC) 112 % of control | endpoint: median survival time, dose: 3.8 micrograms/kg/injection, schedule: Q01DX005 (ip), vehicle: Klucel (hydroxypropylcellulose) (HPC) 103 % of control | endpoint: median survival time, dose: 7.5 micrograms/kg/injection, schedule: Q01DX005 (ip), vehicle: Klucel (hydroxypropylcellulose) (HPC) 100 % of control | endpoint: median survival time, dose: 15.0 micrograms/kg/injection, schedule: Q01DX005 (ip), vehicle: Klucel (hydroxypropylcellulose) (HPC) 102 % of control | endpoint: median survival time, dose: 30.0 micrograms/kg/injection, schedule: Q01DX005 (ip), vehicle: Klucel (hydroxypropylcellulose) (HPC) 98 % of control | endpoint: median survival time, dose: 60.0 micrograms/kg/injection, schedule: Q01DX005 (ip), vehicle: Klucel (hydroxypropylcellulose) (HPC) 103 % of control | endpoint: median survival time, dose: 120.0 micrograms/kg/injection, schedule: Q01DX005 (ip), vehicle: Klucel (hydroxypropylcellulose) (HPC) 109 % of control

COC(=O)NC(N)=Nc1ccccc1
inactive: [5] 96 % of control | [6] 87 % of control

NNC(=O)CCCCCC/C=C/CCCCCCCO
inactive: endpoint: mean survival time, dose: 50.0 mg/kg/injection, schedule: Q01DX001 (ip), vehicle: saline with Tween-80 98 % of control | [7] 108 % of control | [8] 101 % of control

CC(C)C1C(O)C23CCC4C(C)(CO)CCCC4(C)C2CC13 (centres undefined)
inactive: [7] 96 % of control | [8] 94 % of control | [9] 94 % of control

O=C(COc1ccc(F)cc1F)OC(=O)COc1ccc(F)cc1F
inactive: endpoint: mean survival time, dose: 100.0 mg/kg/injection, schedule: Q04DX002 (ip), vehicle: saline with Tween-80 92 % of control | endpoint: mean survival time, dose: 200.0 mg/kg/injection, schedule: Q04DX002 (ip), vehicle: saline with Tween-80 89 % of control | endpoint: mean survival time, dose: 400.0 mg/kg/injection, schedule: Q04DX002 (ip), vehicle: saline with Tween-80 89 % of control
